Where two headings read alike, the source gives them in different places.
System: recombinant NL4-3 virus (Renilla luciferase in nef, Gag P373S)
Experiment: HIV Cell Culture Assay (luciferase reporter virus in MT-2 cells)
Assay type: cell-based
Protocol: MT-2 cells and 293T cells were obtained from the NIH AIDS Research and Reference Reagent Program. MT-2 cells were propagated in RPMI 1640 media supplemented with 10% heat inactivated fetal bovine serum, […]. The 293T cells were propagated in DMEM media supplemented with 10% heat inactivated fetal bovine serum (FBS), 100 units/ml penicillin G and 100 μg/ml streptomycin. The proviral DNA clone of NL4-3 was obtained from the NIH AIDS Research and Reference Reagent Program. A recombinant NL4-3 virus, in which a section of the nef gene from NL4-3 was replaced with the Renilla luciferase gene, was used as a reference virus. In addition, residue Gag P373 was converted to P373S. Briefly, the recombinant virus was prepared by transfection of the altered proviral clone of NL4-3. Transfections were performed in 293T cells using LipofectAMINE PLUS from Invitrogen (Carlsbad, Calif.), according to manufacturer's instruction. The virus was titered in MT-2 cells using luciferase enzyme activity as a marker. Luciferase was quantitated using the Dual Luciferase kit from Promega (Madison, Wis.), with modifications to the manufacturer's protocol. The diluted Passive Lysis solution was pre-mixed with the re-suspended Luciferase Assay Reagent and the re-suspended Stop & Glo Substrate (2:1:1 ratio). Fifty (50) μL of the mixture was added to each aspirated well on assay plates and luciferase activity was measured immediately on a Wallac TriLux (Perkin-Elmer). Antiviral activities of inhibitors toward the recombinant virus were quantified by measuring luciferase activity in cells infected for 4-5 days with NLRluc recombinants in the presence serial dilutions of the inhibitor. Table 1 is the key for the data in Table 2.

Structure (SMILES): C=C(C)[C@@H]1CC[C@]2(C(=O)NCCN(C)C)CC[C@]3(C)[C@H](CC[C@@H]4[C@@]5(C)CC=C(c6ccc(C(=O)O)cc6)C(C)(C)[C@@H]5CC[C@]43C)[C@@H]12 [Example 16, 4-((1R,3aS,5aR,5bR,7aR,11aS,11bR,13aR,13bR)-3a-(2-(dimethylamino)ethylcarbamoyl)-5a,5b,8,8,11a-pentamethyl-1-(prop-1-en-2-yl)-2,3,3a,4,5,5a,5b,6,7,7a,8,11,11a,11b,12,13,13a,13b-octadecahydro-1H-cyclopenta[a]chrysen-9-yl)benzoic acid]
- EC50 (NL43, read-out: EC50 Group): < 100 nM

Structure (SMILES): C=C(C)[C@@H]1CC[C@]2(C(=O)NCCO)CC[C@]3(C)[C@H](CC[C@@H]4[C@@]5(C)CC=C(c6ccc(C(=O)O)cc6)C(C)(C)[C@@H]5CC[C@]43C)[C@@H]12 [Example 17, 4-((1R,3aS,5aR,5bR,7aR,11aS,11bR,13aR,13bR)-3a-(2-hydroxyethylcarbamoyl)-5a,5b,8,8,11a-pentamethyl-1-(prop-1-en-2-yl)-2,3,3a,4,5,5a,5b,6,7,7a,8,11,11a,11b,12,13,13a,13b-octadecahydro-1H-cyclopenta[a]chrysen-9-yl)benzoic acid]
- EC50 (NL43, read-out: EC50 Group): < 100 nM

Structure (SMILES): C=C(C)[C@@H]1CC[C@]2(C(=O)N(C)Cc3ccccc3)CC[C@]3(C)[C@H](CC[C@@H]4[C@@]5(C)CC=C(c6ccc(C(=O)O)cc6)C(C)(C)[C@@H]5CC[C@]43C)[C@@H]12 [Example 18, 4-((1R,3aS,5aR,5bR,7aR,11aS,11bR,13aR,13bR)-3a-(benzyl(methyl)carbamoyl)-5a,5b,8,8,11a-pentamethyl-1-(prop-1-en-2-yl)-2,3,3a,4,5,5a,5b,6,7,7a,8,11,11a,11b,12,13,13a,13b-octadecahydro-1H-cyclopenta[a]chrysen-9-yl)benzoic acid]
- EC50 (NL43, read-out: EC50 Group): > 100 nM

Structure (SMILES): C=C(C)[C@@H]1CC[C@]2(C(=O)N3CCCCC3)CC[C@]3(C)[C@H](CC[C@@H]4[C@@]5(C)CC=C(c6ccc(C(=O)O)cc6)C(C)(C)[C@@H]5CC[C@]43C)[C@@H]12 [Example 19, 4-((1R,3aS,5aR,5bR,7aR,11aS,11bR,13aR,13bR)-5a,5b,8,8,11a-pentamethyl-3a-(piperidine-1-carbonyl)-1-(prop-1-en-2-yl)-2,3,3a,4,5,5a,5b,6,7,7a,8,11,11a,11b,12,13,13a,13b-octadecahydro-1H-cyclopenta[a]chrysen-9-yl)benzoic acid]
- EC50 (NL43): 370 nM

Structure (SMILES): C=C(C)[C@@H]1CC[C@]2(C(=O)NCCc3ccccn3)CC[C@]3(C)[C@H](CC[C@@H]4[C@@]5(C)CC=C(c6ccc(C(=O)OC)cc6)C(C)(C)[C@@H]5CC[C@]43C)[C@@H]12 [Example 20, methyl 4-((1R,3aS,5aR,5bR,7aR,11aS,11bR,13aR,13bR)-5a,5b,8,8,11a-pentamethyl-1-(prop-1-en-2-yl)-3a-(2-(pyridin-2-yl)ethylcarbamoyl)-2,3,3a,4,5,5a,5b,6,7,7a,8,11,11a,11b,12,13,13a,13b-octadecahydro-1H-cyclopenta[a]chrysen-9-yl)benzoate]
- EC50 (NL43, read-out: EC50 Group): > 100 nM

Structure (SMILES): C=C(C)[C@@H]1CC[C@]2(C(=O)N3CCC(O)CC3)CC[C@]3(C)[C@H](CC[C@@H]4[C@@]5(C)CC=C(c6ccc(C(=O)OC)cc6)C(C)(C)[C@@H]5CC[C@]43C)[C@@H]12 [Example 21, methyl 4-((1R,3aS,5aR,5bR,7aR,11aS,11bR,13aR,13bR)-3a-(4-hydroxypiperidine-1-carbonyl)-5a,5b,8,8,11a-pentamethyl-1-(prop-1-en-2-yl)-2,3,3a,4,5,5a,5b,6,7,7a,8,11,11a,11b,12,13,13a,13b-octadecahydro-1H-cyclopenta[a]chrysen-9-yl)benzoate]
- EC50 (NL43, read-out: EC50 Group): > 100 nM

Structure (SMILES): C=C(C)[C@@H]1CC[C@]2(C(=O)N3CCC(O)CC3)CC[C@]3(C)[C@H](CC[C@@H]4[C@@]5(C)CC=C(c6ccc(C(=O)O)cc6)C(C)(C)[C@@H]5CC[C@]43C)[C@@H]12 [Example 22, 4-((1R,3aS,5aR,5bR,7aR,11aS,11bR,13aR,13bR)-3a-(4-hydroxypiperidine-1-carbonyl)-5a,5b,8,8,11a-pentamethyl-1-(prop-1-en-2-yl)-2,3,3a,4,5,5a,5b,6,7,7a,8,11,11a,11b,12,13,13a,13b-octadecahydro-1H-cyclopenta[a]chrysen-9-yl)benzoic acid]
- EC50 (NL43, read-out: EC50 Group): < 100 nM

Structure (SMILES): C=C(C)[C@@H]1CC[C@]2(C(=O)N(C)CCO)CC[C@]3(C)[C@H](CC[C@@H]4[C@@]5(C)CC=C(c6ccc(C(=O)O)cc6)C(C)(C)[C@@H]5CC[C@]43C)[C@@H]12 [Example 23, 4-((1R,3aS,5aR,5bR,7aR,11aS,11bR,13aR,13bR)-3a-((2-hydroxyethyl)(methyl)carbamoyl)-5a,5b,8,8,11a-pentamethyl-1-(prop-1-en-2-yl)-2,3,3a,4,5,5a,5b,6,7,7a,8,11,11a,11b,12,13,13a,13b-octadecahydro-1H-cyclopenta[a]chrysen-9-yl)benzoic acid]
- EC50 (NL43, read-out: EC50 Group): < 100 nM

Structure (SMILES): C=C(C)[C@@H]1CC[C@]2(C(=O)N(C)CCc3ccccn3)CC[C@]3(C)[C@H](CC[C@@H]4[C@@]5(C)CC=C(c6ccc(C(=O)O)cc6)C(C)(C)[C@@H]5CC[C@]43C)[C@@H]12 [Example 24, 4-((1R,3aS,5aR,5bR,7aR,11aS,11bR,13aR,13bR)-5a,5b,8,8,11a-pentamethyl-3a-(methyl(2-(pyridin-2-yl)ethyl)carbamoyl)-1-(prop-1-en-2-yl)-2,3,3a,4,5,5a,5b,6,7,7a,8,11,11a,11b,12,13,13a,13b-octadecahydro-1H-cyclopenta[a]chrysen-9-yl)benzoic acid]
- EC50 (NL43): 48 nM

Structure (SMILES): C=C(C)[C@@H]1CC[C@]2(C(=O)NCCC(=O)O)CC[C@]3(C)[C@H](CC[C@@H]4[C@@]5(C)CC=C(c6ccc(C(=O)O)cc6)C(C)(C)[C@@H]5CC[C@]43C)[C@@H]12 [Example 25, 4-((1R,3aS,5aR,5bR,7aR,11aS,11bR,13aR,13bR)-3a-(2-carboxyethylcarbamoyl)-5a,5b,8,8,11a-pentamethyl-1-(prop-1-en-2-yl)-2,3,3a,4,5,5a,5b,6,7,7a,8,11,11a,11b,12,13,13a,13b-octadecahydro-1H-cyclopenta[a]chrysen-9-yl)benzoic acid]
- EC50 (NL43, read-out: EC50 Group): < 100 nM

Structure (SMILES): C=C(C)[C@@H]1CC[C@]2(C(=O)NC)CC[C@]3(C)[C@H](CC[C@@H]4[C@@]5(C)CC=C(c6ccc(C(=O)O)cc6)C(C)(C)[C@@H]5CC[C@]43C)[C@@H]12 [Example 26, 4-((1R,3aS,5aR,5bR,7aR,11aS,11bR,13aR,13bR)-5a,5b,8,8,11a-pentamethyl-3a-(methylcarbamoyl)-1-(prop-1-en-2-yl)-2,3,3a,4,5,5a,5b,6,7,7a,8,11,11a,11b,12,13,13a,13b-octadecahydro-1H-cyclopenta[a]chrysen-9-yl)benzoic acid]
- EC50 (NL43, read-out: EC50 Group): < 100 nM

Structure (SMILES): C=C(C)[C@@H]1CC[C@]2(C(=O)NCCCN(C)C)CC[C@]3(C)[C@H](CC[C@@H]4[C@@]5(C)CC=C(c6ccc(C(=O)O)cc6)C(C)(C)[C@@H]5CC[C@]43C)[C@@H]12 [Example 27, 4-((1R,3aS,5aR,5bR,7aR,11aS,11bR,13aR,13bR)-3a-(3-(dimethylamino)propylcarbamoyl)-5a,5b,8,8,11a-pentamethyl-1-(prop-1-en-2-yl)-2,3,3a,4,5,5a,5b,6,7,7a,8,11,11a,11b,12,13,13a,13b-octadecahydro-1H-cyclopenta[a]chrysen-9-yl)benzoic acid]
- EC50 (NL43, read-out: EC50 Group): < 100 nM

Structure (SMILES): C=C(C)[C@@H]1CC[C@]2(C(=O)NCc3ccncc3)CC[C@]3(C)[C@H](CC[C@@H]4[C@@]5(C)CC=C(c6ccc(C(=O)O)cc6)C(C)(C)[C@@H]5CC[C@]43C)[C@@H]12 [Example 28, 4-((1R,3aS,5aR,5bR,7aR,11aS,11bR,13aR,13bR)-5a,5b,8,8,11a-pentamethyl-1-(prop-1-en-2-yl)-3a-(pyridin-4-ylmethylcarbamoyl)-2,3,3a,4,5,5a,5b,6,7,7a,8,11,11a,11b,12,13,13a,13b-octadecahydro-1H-cyclopenta[a]chrysen-9-yl)benzoic acid]
- EC50 (NL43, read-out: EC50 Group): < 100 nM

Structure (SMILES): C=C(C)[C@@H]1CC[C@]2(C(=O)NCc3cccnc3)CC[C@]3(C)[C@H](CC[C@@H]4[C@@]5(C)CC=C(c6ccc(C(=O)O)cc6)C(C)(C)[C@@H]5CC[C@]43C)[C@@H]12 [Example 29, 4-((1R,3aS,5aR,5bR,7aR,11aS,11bR,13aR,13bR)-5a,5b,8,8,11a-pentamethyl-1-(prop-1-en-2-yl)-3a-(pyridin-3-ylmethylcarbamoyl)-2,3,3a,4,5,5a,5b,6,7,7a,8,11,11a,11b,12,13,13a,13b-octadecahydro-1H-cyclopenta[a]chrysen-9-yl)benzoic acid]
- EC50 (NL43, read-out: EC50 Group): < 100 nM

Structure (SMILES): C=C(C)[C@@H]1CC[C@]2(C(=O)NCCNC(C)=O)CC[C@]3(C)[C@H](CC[C@@H]4[C@@]5(C)CC=C(c6ccc(C(=O)O)cc6)C(C)(C)[C@@H]5CC[C@]43C)[C@@H]12 [Example 30, 4-((1R,3aS,5aR,5bR,7aR,11aS,11bR,13aR,13bR)-3a-(2-acetamidoethylcarbamoyl)-5a,5b,8,8,11a-pentamethyl-1-(prop-1-en-2-yl)-2,3,3a,4,5,5a,5b,6,7,7a,8,11,11a,11b,12,13,13a,13b-octadecahydro-1H-cyclopenta[a]chrysen-9-yl)benzoic acid]
- EC50 (NL43, read-out: EC50 Group): < 100 nM

— patent publication US8802661B2, “C-28 amides of modified C-3 betulinic acid derivatives as HIV maturation inhibitors” (priority 2010, dated 2014)
